According to patent US9611230B2, “1,3,4-oxadiazole benzoic acid compounds and their use for nonsense suppression and the treatment of disease” (PTC Therapeutics, Inc., priority 2004, dated 2017):

| Compound | melting point |
| --- | --- |
| O=C(O)c1cccc(-c2ncc(-c3ccccc3F)o2)c1 [Compound 579] | 228 to 229 °C |
| O=C(O)c1ccc(-c2ncc(-c3cc(F)ccc3F)o2)cc1 [Compound 630] | 301 to 302 °C |
| O=C(O)c1ccc(-c2ncc(-c3cccc(F)c3F)o2)cc1 [Compound 549] | 295 to 296 °C |
| CC(C)c1ccc(-c2cc(-c3cccc(C(=O)O)c3)no2)cc1 [Compound 290] | 222 to 225 °C |
| COc1ccc(-c2cc(-c3cccc(C(=O)O)c3)on2)cc1 [Compound 500] | 246 to 247 °C |
| Cc1ccc(-c2cc(-c3ccc(C(=O)O)cc3)on2)cc1 [Compound 541] | 307 to 308 °C |
| COc1ccc(-c2cc(-c3cccc(C(=O)O)c3)no2)cc1 [Compound 480] | 249.5 to 251 °C |
| O=C(O)c1cccc(-c2nc(-c3ccc(OC(F)(F)F)cc3)no2)c1 [Compound 511] | 217 to 218 °C |
| O=C(O)c1cccc(-c2nc(-c3cccc(F)c3)no2)c1 [Compound 507] | 221.5 to 223 °C |
| CC(C)c1ccc(-c2coc(-c3cccc(C(=O)O)c3)n2)cc1 [Compound 276] | 235 to 237 °C |
| O=C(O)c1cccc(-c2nc(-c3ccc(C(F)(F)F)cc3)n[nH]2)c1 [Compound 456] | 235 to 238 °C |
| O=C(O)c1ccc(-c2ncc(C#Cc3ccccc3)o2)cc1 [Compound 651] | 251 to 253 °C |
| O=C(O)c1cccc(-c2nnc(-c3ccc(N4CCCCC4)cc3)o2)c1 [Compound 83] | 275 to 277 °C |
| CC(C)(C)C1CCC(c2nnc(-c3ccc(C(=O)O)cc3)o2)CC1 (stereo not drawn) [Compound 621] | 258 to 261 °C |
| CCc1ccc(-c2cnc(-c3cccc(C(=O)O)c3)o2)cc1 [Compound 590] | 174 to 175 °C |
| CC(C)c1ccc(-c2cnc(-c3ccc(C(=O)O)cc3)o2)cc1 [Compound 635] | 233 to 234 °C |
| O=C(O)c1cccc(-c2cc(-c3ccccc3)on2)c1 [Compound 477] | 245 to 247 °C |
| O=C(O)c1cccc(-c2cc(-c3ccccc3F)on2)c1 [Compound 463] | 221 to 222 °C |
| CC(C)c1ccc(-c2nnc(-c3cccc(C(=O)O)c3)o2)cc1 [Compound 6, 3-[5-(4-isopropylphenyl)-[1,3,4]oxadiazol-2-yl]benzoic acid] | 202 to 204 °C |
| O=C(O)c1ccc(-c2ncc(-c3ccc(Cl)cc3)o2)cc1 [Compound 639] | 260 to 263 °C |
| O=C(O)c1ccc(-c2ncc(-c3ccc4c(c3)OCCO4)o2)cc1 [Compound 631] | 308 to 309 °C |
| O=C(O)c1cccc(-c2nc(-c3cccnc3)n[nH]2)c1 [Compound 428] | > 310 °C |
| CC(C)c1ccc(-c2ncc(-c3cccc(C(=O)O)c3)s2)cc1 [Compound No. 321, 3-[2-(4-isopropylphenyl)thiazol-5-yl]benzoic acid] | 237 to 239 °C |
| COc1ccc(-c2noc(-c3cccc(C(=O)O)c3)n2)cc1 [Compound 509] | 281.5 to 283 °C |
| COc1ccccc1-c1cnc(-c2ccc(C(=O)O)cc2)o1 [Compound 645] | 305 to 306 °C |
| O=C(O)c1cccc(-c2nnc(-c3c[nH]c4ccccc34)o2)c1 [Compound 319] | 304 to 320 °C |

| Compound | melting point |
| --- | --- |
| COc1ccc(-c2cc(-c3ccc(C(=O)O)cc3)no2)cc1 [Compound 532] | 298 to 300 °C |
| Cc1cccc(-c2cnc(-c3cccc(C(=O)O)c3)o2)c1 [Compound 589] | 194 to 195 °C |
| O=C(O)c1ccc(-c2cc(-c3ccc(F)cc3)no2)cc1 [Compound 537] | 322 to 323 °C |
| O=C(O)c1cccc(-c2ncc(-c3ccccc3C(F)(F)F)o2)c1 [Compound 584] | 218 to 219 °C |
| O=C(O)c1cccc(-c2nc(-c3ccc(Cl)cc3)no2)c1 [Compound 508] | 299 to 300 °C |
| COc1cccc(-c2n[nH]c(-c3cccc(C(=O)O)c3)n2)c1 [Compound 458] | 247 to 250 °C |
| CN(C)c1ccc(-c2nnc(-c3cccc(C(=O)O)c3)o2)cn1 [Compound 223] | 272 to 274 °C |
| CN(C)c1ccccc1-c1nnc(-c2ccccc2C(=O)O)o1 [Compound 610] | 180 to 183 °C |
| COc1cccc(-c2cc(-c3cccc(C(=O)O)c3)n[nH]2)c1 [Compound 551] | 238 to 239 °C |
| COc1cccc(-c2cnc(-c3ccc(C(=O)O)cc3)o2)c1 [Compound 544] | 240 to 242 °C |
| O=C(O)c1ccc(-c2ncc(-c3cccc(OCc4ccccc4)c3)o2)cc1 [Compound 646] | 210 to 211 °C |
| O=C(O)c1cccc(-c2nnc(-c3ccc(N4CCN(c5ccccc5)CC4)cc3)o2)c1 [Compound 84] | 279 to 282 °C |
| CN(C)c1cccc(-c2nnc(-c3ccc(C(=O)O)cc3)o2)c1 [Compound 3] | 247 to 248 °C |
| CCc1ccc(-c2cnc(-c3ccc(C(=O)O)cc3)o2)cc1 [Compound 634] | 233 to 234 °C |
| O=C(O)c1cccc(-c2ncc(-c3cccc(C(F)(F)F)c3)o2)c1 [Compound 585] | 250 to 251.5 °C |
| O=C(O)c1cccc(-c2cc(-c3ccc(F)cc3)no2)c1 [Compound 504] | 273 to 274.5 °C |
| O=C(O)c1cccc(-c2nc(-c3ccccc3O)n[nH]2)c1 [Compound 455] | > 300 °C |
| O=C(O)c1ccc(-c2nnc(-c3ccccc3)o2)cc1 [Compound 596] | > 275 °C |
| CC(C)c1cccc(-c2cnc(-c3ccc(C(=O)O)cc3)o2)c1 [Compound 644] | 236 to 237 °C |
| O=C(O)c1cccc(-c2nnc(-c3ccc(Cl)nc3)o2)c1 [Compound 222] | 278 to 282 °C |
| Cc1ccccc1-c1cnc(-c2ccc(C(=O)O)cc2)o1 [Compound 643] | 284 to 286 °C |
| COc1ccc(-c2cnc(-c3ccc(C(=O)O)cc3)o2)cc1 [Compound 637] | 249 to 251 °C |
| O=C(O)c1ccc(-c2ncc(-c3ccc(F)c(F)c3)o2)cc1 [Compound 640] | 291 to 292 °C |
| O=C(O)c1cccc(-c2nnc(-c3ccc(Cl)nc3Cl)o2)c1 [Compound 272] | 205 to 208 °C |
| O=C(O)c1ccc(-c2ncc(-c3cccc(C(F)(F)F)c3)o2)cc1 [Compound 543] | 286 to 287 °C |
| CN(C)c1cc(-c2nnc(-c3ccc(C(=O)O)cc3)o2)ccn1 [Compound 224] | 240 to 250 °C |

| Compound | melting point |
| --- | --- |
| O=C(O)c1cccc(-c2cc(-c3ccc(CO)cc3)on2)c1 [Compound 575] | 248 to 250 °C |
| O=C(O)c1ccc(-c2ncc(-c3ccc(F)c(Cl)c3)o2)cc1 [Compound 649] | 295 to 297 °C |
| O=C(O)c1cccc(-c2cc(-c3ccc(Cl)cc3)no2)c1 [Compound No. 503, 3-[3-(4-chlorophenyl)isoxazol-5-yl]benzoic acid] | 265 to 266 °C |
| Cc1cccc(-c2cnc(-c3ccc(C(=O)O)cc3)o2)c1 [Compound 632] | 248 to 249 °C |
| O=C(O)c1ccc(-c2ncc(-c3ccc(Br)cc3)o2)cc1 [Compound 642] | 259 to 261 °C |
| CN(C)c1ccc(-c2nnc(-c3ccccc3C(=O)O)o2)cc1 [Compound 606] | 197 to 200 °C |
| CC(C)c1ccc(-c2noc(-c3ccc(C(=O)O)cc3)n2)cc1 [Compound No. 140, 4-[3-(4-isopropylphenyl)-1,2,4-oxadiazol-5-yl]benzoic acid] | 253 to 255 °C |
| CC(C)c1ccc(-c2ncc(-c3cccc(C(=O)O)c3)o2)cc1 [Compound No. 320, 3-[2-(4-isopropylphenyl)-oxazol-5-yl]-benzoic acid] | 193 to 195 °C |
| O=C(O)c1cccc(-c2nc(-c3ccc(Br)cc3)n[nH]2)c1 [Compound 423] | 309 to 311 °C |
| O=C(O)c1ccc(-c2cc(-c3ccccc3F)no2)cc1 [Compound 535] | 302 to 303 °C |
| CN(C)c1ccccc1-c1nnc(-c2ccc(C(=O)O)cc2)o1 [Compound 601] | 177 to 178 °C |
| CC(C)c1cccc(-c2nnc(-c3cccc(C(=O)O)c3)o2)c1 [Compound 620] | 190 to 192 °C |
| N#Cc1c(-c2cccc(C(=O)O)c2)noc1-c1ccccc1 [Compound 487] | 249 to 250 °C |
| CC(C)c1cccc(-c2nnc(-c3ccc(C(=O)[O-])cc3)o2)c1.[Na+] [Compound 628] | > 300 °C |
| CC(C)c1ccc(-c2cnc(-c3cccc(C(=O)O)c3)[nH]2)cc1 [Compound No. 277, 3-[5-(4-isopropylphenyl)-1H-imidazol-2-yl]benzoic acid] | 296 to 298 °C |
| O=C(O)c1cccc(-c2cc(-c3cccc(F)c3)no2)c1 [Compound 502] | 264 to 265 °C |
| O=C(O)c1cccc(-c2nc(-c3ccc(F)cc3)n[nH]2)c1 [Compound 426] | > 310 °C |
| CC(C)c1ccc(-c2ccc(-c3cccc(C(=O)O)c3)s2)cc1 [Compound No. 400, 3-[5-(4-isopropylphenyl)thiophen-2-yl]benzoic acid] | 233 to 235 °C |
| O=C(O)c1ccc(-c2cc(-c3ccc(Cl)cc3)no2)cc1 [Compound 540] | 320.5 to 322.5 °C |
| CC(C)c1ccc(-c2nnc(-c3cccc(C(=O)[O-])c3)o2)cc1.[Na+] [Compound 626] | 200 to 205 °C (dec.) |
| CN(C)c1cccc(-c2nnc(-c3ccccc3C(=O)O)o2)c1 [Compound 609] | 71 to 78 °C |
| O=C(O)c1cccc(-c2nc(-c3ccc(C(F)(F)F)cc3)no2)c1 [Compound 513] | 249.5 to 251 °C |
| O=C(O)c1cccc(-c2cc(-c3ccc(C(F)(F)F)cc3)on2)c1 [Compound 574] | 281 to 282 °C |
| O=C(O)c1cccc(-c2nnc(-c3cc4ccccc4[nH]3)o2)c1 [Compound 315] | > 310 °C |
| CC(C)c1ccc(-c2nnc(-c3cccc(C(=O)O)c3Cl)o2)cc1 [Compound 401] | 152 to 155 °C |
| CC(C)c1cccc(-c2cnc(-c3cccc(C(=O)O)c3)o2)c1 [Compound 591] | 213 to 215 °C |
